Earlier results in patent publication US20240000880A1, “A PHARMACEUTICAL COMPOSITION FOR PREVENTING AND TREATING LUNG INJURY, A PREPARATION METHOD THEREFOR AND A USE THEREOF” (priority 2020, published 2024).

System: rats with chronic obstructive pulmonary disease
Settings: rats with COPD; previous studies

Oc1ccc(C=Cc2cc(O)cc(O)c2)cc1 [resveratrol]
antioxidant efficacy on chronic obstructive pulmonary disease: has antioxidant efficacy | lung function: can improve lung function to some extent
